Experiments:
[1] = Urine pharmacokinetics (Ae0–24, CLR) after a single oral dose of rucaparib 600 mg in patients with advanced solid tumors; assay type: in vivo, human; settings: single oral rucaparib 600 mg; for Ae0–24, GM / Ae0–24, Mean (SD) / Ae0–24, Median (min–max): urine
From the text: Stable deuterium-labeled analytes were used as internal standards.
PK parameters were estimated from the concentration–time profiles.

[2] = human, in vivo
Protocol: (§1) In Part 1, patients received a single oral dose of rucaparib 600 mg on day 1; PK samples were collected and safety monitored through day 7.
(§2) Sample collection, processing, and shipping were conducted according to standardized protocols shared across study sites. Plasma samples were collected for PK analysis at the predose assessment and at 1, 2, 3, 4, 8, 12, 24, 48, 72, 96, 120, and 144 h postdose. A predose urine sample was collected less than 12 h prior to study drug administration. Total urine was collected 0–12 h and 12–24 h postdose. Total (bound and unbound) concentrations of rucaparib and its metabolite M324 in plasma and urine samples were determined by Q Squared Solutions BioSciences (Ithaca, NY, USA) using validated liquid chromatography mass spectrometry/mass spectrometry methods. Stable deuterium-labeled analytes were used as internal standards. The assay calibration ranges for plasma samples were 5–10,000 ng/mL for rucaparib and 1–1000 ng/mL for M324 with lower limits of quantification (LLOQ) of 5.00 and 1.00 ng/mL, respectively. For urine samples, the calibration range was 500–50,000 ng/mL for both rucaparib and M324, with a LLOQ of 500 ng/mL for both analytes. The precision was within 9.3% CV, and the accuracy was within ± 6.2%.
(§3) PK parameters were estimated from the concentration–time profiles. Actual elapsed time after dosing was used to estimate plasma PK parameters based on noncompartmental methods using Phoenix® WinNonlin® version 8.1.0 (Certara USA, Inc., Princeton, NJ, USA). […] Exploratory PK parameters for M324 calculated based on plasma and urine concentration-time data were Cmax, AUC0–last, AUC0–inf, t1/2, tmax, Ae0–24, and CLR, as data allowed.
(§4) PK parameters were calculated by noncompartmental analysis, analyzed using descriptive statistics, and presented by hepatic functional status. Analysis of variance (ANOVA) was used to compare PK parameters (e.g., Cmax, AUC0–last, and AUC0–inf) between the normal hepatic function group and the moderate hepatic impairment group per NCI-ODWG criteria. PK values were log-transformed before analysis. Baseline covariates (e.g., creatinine clearance [CLcr], sex, age, BMI, and ECOG PS) were tested for any significant effect (P value < 0.05). Geometric least-squares means were used to calculate the ratios of the PK parameters in the hepatic impairment group to those in the control group, along with 90% confidence intervals (CIs). The Wilcoxon rank-sum test was used to compare tmax values between the two groups, and estimates of the median differences were determined, along with 90% CIs. In addition, the relationships between log-transformed PK parameters (AUC0–last, AUC0–inf, Cmax) for rucaparib and M324 and hepatic function parameters (bilirubin and aspartate aminotransferase [AST]) relevant to the classification of hepatic impairment according to NCI-ODWG were explored by a linear regression approach.

[3] = cited from earlier work
[4] = ref unpublished results; cited from earlier work
PARP [5] = settings: cited from earlier work
PARP [6] = test system: PARP; set-up: method as in earlier work; settings: cited from earlier work
[7] = Plasma pharmacokinetics after a single oral dose of rucaparib 600 mg in patients with advanced solid tumors, by hepatic function group; settings: for AUC0–last, Geometric LS means / Cmax, Geometric LS means: ANOVA; for AUC0–inf, GM / AUC0–inf, Mean (SD) / AUC0–inf, Median (min–max) / AUC0–last, GM / AUC0–last, Mean (SD) / AUC0–last, Median (min–max) / Cmax, GM / Cmax, Mean (SD) / Cmax, Median (min–max) / tmax, Median (min–max): single oral rucaparib 600 mg
Protocol: as §1, §2, §3, §4

[8] = Child–Pugh mild hepatic impairment
[9] = Child–Pugh moderate hepatic impairment
[10] = Child–Pugh severe hepatic impairment
[11] = NCI-ODWG moderate hepatic impairment
[12] = NCI-ODWG normal hepatic function
[13] = NCI-ODWG moderate hepatic impairment (n = 8)
[14] = NCI-ODWG normal hepatic function (n = 8)
[15] = linear regression of log-transformed PK parameter on hepatic function parameter (NCI-ODWG)

## O=C(O)c1ccc(-c2[nH]c3cc(F)cc4c3c2CCNC4=O)cc1 [M324]
[1]; [8]
  CLR, GM: 119 mL/min
  CLR, Mean (SD): 121 (26.2) mL/min
  CLR, Median (min–max): 114 (94.7–161) mL/min
  Ae0–24, GM: 13.1 mg
  Ae0–24, Mean (SD): 16.1 (11.9) mg
  Ae0–24, Median (min–max): 14.5 (4.77–40.9) mg
[1]; [9]
  CLR, GM: 68.5 mL/min
  CLR, Mean (SD): 90.5 (55.6) mL/min
  CLR, Median (min–max): 104 (12.7–163) mL/min
  Ae0–24, GM: 4.33 mg
  Ae0–24, Mean (SD): 5.44 (4.06) mg
  Ae0–24, Median (min–max): 4.29 (1.46–12.8) mg
[1]; [10]
  CLR, GM: 24.8 mL/min
  CLR, Mean (SD): 39.3 (43.1) mL/min
  CLR, Median (min–max): 39.3 (8.84–69.8) mL/min
  Ae0–24, GM: 1.37 mg
  Ae0–24, Mean (SD): 1.38 (0.193) mg
  Ae0–24, Median (min–max): 1.38 (1.24–1.51) mg
[1]; [11]
  CLR, GM: 47.7 mL/min
  CLR, Mean (SD): 72.7 (57.6) mL/min
  CLR, Median (min–max): 69.8 (8.84–163) mL/min
  Ae0–24, GM: 3.61 mg
  Ae0–24, Mean (SD): 5.46 (4.96) mg
  Ae0–24, Median (min–max): 2.88 (1.24–12.8) mg
[1]; [12]
  CLR, GM: 118 mL/min
  CLR, Mean (SD): 120 (24.0) mL/min
  CLR, Median (min–max): 113 (96.7–161) mL/min
  Ae0–24, GM: 10.0 mg
  Ae0–24, Mean (SD): 13.7 (12.3) mg
  Ae0–24, Median (min–max): 10.9 (3.47–40.9) mg
[2]
  AUC0–last, Geometric mean ratio Moderate/normal (90% CI): 1.483 (0.766–2.868)
  Cmax, Geometric mean ratio Moderate/normal (90% CI): 1.055 (0.529–2.105)
[3]
  formation of M324, share of total clearance of rucaparib: ~ 1/3
[4]
  plasma protein binding: 91%
PARP [5]
  biological activity, in vitro PARP inhibition data: not biologically active
PARP [6]
  activity in in vitro target binding affinity and cytotoxicity assay: inactive
[7]; [13]
  AUC0–last, Geometric LS means: 5930 h⋅ng/mL
  Cmax, Geometric LS means: 76.7 ng/mL
[7]; [14]
  AUC0–last, Geometric LS means: 4000 h⋅ng/mL
  Cmax, Geometric LS means: 72.7 ng/mL
[7]; [8]
  AUC0–inf, GM: 5590 h⋅ng/mL
  AUC0–inf, Mean (SD): 5800 (1720) h⋅ng/mL
  AUC0–inf, Median (min–max): 5700 (3960–8340) h⋅ng/mL
  AUC0–last, GM: 4740 h⋅ng/mL
  AUC0–last, Mean (SD): 5070 (1910) h⋅ng/mL
  AUC0–last, Median (min–max): 5130 (2330–7890) h⋅ng/mL
  Cmax, GM: 97.9 ng/mL
  Cmax, Mean (SD): 111 (62.9) ng/mL
  Cmax, Median (min–max): 98.7 (42.7–235) ng/mL
  tmax, Median (min–max): 4.00 (3.00–24.0) h
[7]; [9]
  AUC0–inf, GM: 3580 h⋅ng/mL
  AUC0–inf, Mean (SD): 3840 (1590) h⋅ng/mL
  AUC0–inf, Median (min–max): 4190 (2100–5230) h⋅ng/mL
  AUC0–last, GM: 4550 h⋅ng/mL
  AUC0–last, Mean (SD): 5690 (4710) h⋅ng/mL
  AUC0–last, Median (min–max): 3810 (1930–15,600) h⋅ng/mL
  Cmax, GM: 57.4 ng/mL
  Cmax, Mean (SD): 64.1 (33.1) ng/mL
  Cmax, Median (min–max): 50.9 (28.9–118) ng/mL
  tmax, Median (min–max): 23.9 (4.03–72.0) h
[7]; [10]
  AUC0–last, GM: 6840 h⋅ng/mL
  AUC0–last, Mean (SD): 15,900 (20,200) h⋅ng/mL
  AUC0–last, Median (min–max): 15,900 (1550–30,200) h⋅ng/mL
  Cmax, GM: 72.5 ng/mL
  Cmax, Mean (SD): 164 (208) ng/mL
  Cmax, Median (min–max): 164 (16.9–311) ng/mL
  tmax, Median (min–max): 73.5 (2.97–144) h
[7]; [11]
  AUC0–inf, GM: 4960 h⋅ng/mL
  AUC0–inf, Mean (SD): 4990 (720) h⋅ng/mL
  AUC0–inf, Median (min–max): 5230 (4190–5570) h⋅ng/mL
  AUC0–last, GM: 5930 h⋅ng/mL
  AUC0–last, Mean (SD): 8940 (9600) h⋅ng/mL
  AUC0–last, Median (min–max): 4760 (1550–30,200) h⋅ng/mL
  Cmax, GM: 76.7 ng/mL
  Cmax, Mean (SD): 105 (91.8) ng/mL
  Cmax, Median (min–max): 83.7 (16.9–311) ng/mL
  tmax, Median (min–max): 30.0 (2.97–144) h
[7]; [12]
  AUC0–inf, GM: 4750 h⋅ng/mL
  AUC0–inf, Mean (SD): 5220 (2300) h⋅ng/mL
  AUC0–inf, Median (min–max): 4930 (2100–8340) h⋅ng/mL
  AUC0–last, GM: 4000 h⋅ng/mL
  AUC0–last, Mean (SD): 4450 (2130) h⋅ng/mL
  AUC0–last, Median (min–max): 3810 (1930–7890) h⋅ng/mL
  Cmax, GM: 72.7 ng/mL
  Cmax, Mean (SD): 90.1 (67.4) ng/mL
  Cmax, Median (min–max): 74.5 (28.9–235) ng/mL
  tmax, Median (min–max): 10.1 (3.00–24.0) h
[7]; [15]
  Slope estimate (90% CI), AUC0-last vs AST: 0.001 (–0.001 to 0.004)
  Slope estimate (90% CI), AUC0-last vs Bilirubin: –0.004 (–0.018 to 0.011)
  Slope estimate (90% CI), Cmax vs AST: 0 (–0.002 to 0.003)
  Slope estimate (90% CI), Cmax vs Bilirubin: –0.007 (–0.022 to 0.007)
